Test results: patent US5498710A, “Alkyl ether analogues of benzoporphyrin derivatives” (Health Research, Inc., priority 1994, dated 1996)
Entries after “also recorded” stand apart in the source; their conditions may differ.

Assays:
SMT-F tumor [1] = assay: In vivo antitumor (photodynamic) activity, SMT-F tumors in DBA/2 mice; set-up: species or system DBA/2 Ha-DD mouse; details: for tumorcidal activity: similar doses and treatment conditions; for antitumor / photosensitizing activity: 1.0 mg/kg, light 3 h post i.v. injection where stated; for in vivo photosensitizing efficacy / antitumor activity compared with BPD: mice, compared with BPD (mixture of 21 and 22); for Tumor response (nonpalpable tumor), 1-2 d / Tumor response (nonpalpable tumor), 7 d / Tumor response (nonpalpable tumor), 30 d: 1.0 mg/kg i.v., light 3 h after injection; for Tumor response (nonpalpable tumor), 1-2 d: day 1-2; for Tumor response (nonpalpable tumor), 7 d: day 7; for Tumor response (nonpalpable tumor), 30 d: day 30
Experimental: Tumor Response and Foot Response Experiments: For tumor response experiments (see Table 3), a 1mm^3 piece of SMT-F tumor from a donor DBA/2 Ha-DD mouse was implanted subcutaneously with a trocar into the axilla of a 5-7 week old female DBA/2 Ha-DD mouse. When the tumor had grown to about 4mm diameter, mice were injected intravenously (i.v.) with photosensitizers at various doses. At various time after injection, mice were restrained in Plexiglas® holders and each tumor was illuminated with 135 J/cm^2 light from a dye laser 171 (spectra physics). The light dose rate was 75 mW/cm^2 as measured with a PTR Optics […]. The percentage of short term control (non-palpable tumors) was recorded daily. For our study 6 mice/group were used.
(§1) In vivo Biological Activity: The in vivo photosensitizing ability of all the sensitizers was compared with that of commercial BPD in DBA/2 mice bearing subcutaneously implanted SMT-F tumors, a method previously described by Dougherty et al. All photosensitizers, including commercial BPD (mixture of 21 and 22) were first dissolved in a minimum quantity of Tween 80 and then diluted with 0.9% saline, to a final concentration of 1% Tween 80.
(§2) It can be seen from Table 3 that commercial BPD was quite effective at a dose of 5.0 mg/kg, 3 h post i.v. injection (4 out of six mice were tumor free at day 30). […] However, replacement of the vinyl with a 1-hexyloxyethyl group induced a remarkable difference in photosensitizing activity.

[2] = Electronic absorption, red absorption maximum; type: physicochemical; details: for strong absorption in the red: formyl-BPDs; for red shift in the absorption spectra: electron-withdrawing groups on macrocycle
Experimental: M.p.s were measured on a Thomas/Bristoline microscopic hot stage apparatus and were uncorrected. Silica gel 60 (70-230 and 230-400 mesh, Merck) or neutral alumina (Merck; usually Brockmann Grade III, i. e., deactivated with 6% water) were used for column chromatography. Preparative thin layer chromatography was carried out on 20×20 cm glass plates coated with Merck G 254 silica gel (1 mm thick). Analytical thin layer chromatography (TLC) was performed using merck 60 F254 silica gel (precoated sheets, 0.2 mm thick). Reactions were monitored by TLC and spectrophotometry and were carried out under nitrogen and in the dark. ^1 HNMR spectra were obtained in deuteriochloroform solution at 300 MHz using a General Electric QE300 spectrometer; chemical shifts are expressed in ppm relative to chloroform (7.258 ppm). Elemental analyses were performed at the Midwest Microlab, Ltd., Indiana, USA. Unless stated otherwise, electronic absorption spectra were measured in dichloromethane solution using a Hewlett-Packard 8450A spectrophotometer. Mass spectra were obtained at the Mass Spectrometry Facility, University of California, San Francisco and at the Department of Biophysics, Roswell Park Cancer Institute, Buffalo.

[3] = Solubility of photosensitizers; type: physicochemical; details: Tween 80, then 0.9% saline (1% Tween 80)
Excerpt: as §1, §2

SMT-F tumor [4] = assay: In vivo antitumor (photodynamic) activity, SMT-F tumors in DBA/2 mice; set-up: species or system DBA/2 Ha-DD mouse; details: 5.0 mg/kg i.v., light 24 h after injection

Row | Molecule | tumorcidal activity (SMT-F tumor [1]) | antitumor / photosensitizing activity (SMT-F tumor [1]) | in vivo photosensitizing efficacy / antitumor activity compared with BPD (SMT-F tumor [1]) | other results
1 | COC(=O)CCC1=C(C)c2cc3[nH]c(cc4nc(cc5[nH]c(cc1n2)c(CCC(=O)OC)c5C)C(C=CC(C)C1=C(C)c2cc5[nH]c(cc6nc(cc7[nH]c(cc1n2)c(C)c7CCC(=O)OC)C(CCC(=O)OC)=C6C)C1(C)C5=CC=C(C(=O)OC)C1C(=O)OC)=C4C)C1=CC=C(C(=O)OC)C(C(=O)OC)C13C (mixture of isomers) [Compound 46, Bis-Benzoporphyrin] | did not show any significant tumorcidal activity | – | – | –
2 | COC(=O)CCC1=C(C)c2cc3[nH]c(cc4nc(cc5[nH]c(cc1n2)c(CCC(=O)OC)c5C)C(C)=C4C=O)C1(C)C3=CC=C(C(=O)OC)C1C(=O)OC (stereo not drawn) [Compound 34, 3-Formylbenzoporphyrin Derivative] | did not show any significant tumorcidal activity | – | – | strong absorption in the red [2]: 696 nm
3 | COC(=O)CCC1=C(C)c2cc3[nH]c(cc4nc(cc5[nH]c(cc1n2)c(CCC(=O)OC)c5C)C(C(C)=O)=C4C)C1=CC=C(C(=O)OC)C(C(=O)OC)C13C (stereo not drawn) [Compound 23, 8-Acetylbenzoporphyrin Derivative] | did not show any significant tumorcidal activity | inactive | failed to improve their photosensitizing efficacy | red shift in the absorption spectra [2]: significant red shift in the absorption spectra; ease of dissolution [3]: difficult to dissolve
4 | CCC1=C(C)c2cc3[nH]c(cc4nc(cc5[nH]c(cc1n2)c(C)c5CCC(=O)OC)C(CCC(=O)OC)=C4C)C1(C)C3=CC=C(C(=O)OC)C1C(=O)OC (stereo not drawn) [Compound 25, 8-Ethylbenzoporphyrin Derivative] | did not show any significant tumorcidal activity | – | – | –
5 | COC(=O)CCC1=C(C)c2cc3[nH]c(cc4nc(cc5[nH]c(cc1n2)c(CCC(=O)OC)c5C)C(C)=C4C(C)=O)C1(C)C3=CC=C(C(=O)OC)C1C(=O)OC (stereo not drawn) [Compound 31, 3 -Acetylbenzoporphyrin Derivative] | did not show any significant tumorcidal activity | inactive | failed to improve their photosensitizing efficacy | red shift in the absorption spectra [2]: significant red shift in the absorption spectra; ease of dissolution [3]: difficult to dissolve
6 | 3-(1-Hexyloxyethyl)benzoporphyrin Derivative [Compound 45] | – | active | significantly more active than the industrially prepared benzoporphyrin derivative; also recorded: better photosensitizing efficacy than benzoporphyrin derivative monocarboxylic acid; also recorded: better anti-tumor activity than BPD-MA | Tumor response (nonpalpable tumor), 1-2 d (SMT-F tumor [1]): 6/6; Tumor response (nonpalpable tumor), 7 d (SMT-F tumor [1]): 4/6; Tumor response (nonpalpable tumor), 30 d (SMT-F tumor [1]): 0/6; Tumor response (nonpalpable tumor), 1-2 d (SMT-F tumor [4]; day 1-2): 6/6; Tumor response (nonpalpable tumor), 7 d (SMT-F tumor [4]; day 7): 6/6; Tumor response (nonpalpable tumor), 30 d (SMT-F tumor [4]; day 30): 0/6
7 | C=CC1=C(C)c2cc3[nH]c(cc4nc(cc5[nH]c(cc1n2)C1(C)C5=CC=C(C(=O)OC)C1C(=O)OC)C(C)=C4CCC(=O)OC)c(CCC(=O)OC)c3C (stereo not drawn) [Compound 28, 3-Vinylbenzoporphyrin Derivative] | – | activity similar to BPD | – | –
8 | COC(=O)CCC1=C(C)c2cc3[nH]c(cc4nc(cc5[nH]c(cc1n2)c(CCC(=O)OC)c5C)C(C(C)=O)=C4C)C1=CC=C(C(=O)OC)C(C(=O)OC)C13C (stereo not drawn) [Compound 37, 8-Acetylbenzoporphyrin Derivative] | – | inactive | failed to improve their photosensitizing efficacy | red shift in the absorption spectra [2]: significant red shift in the absorption spectra; ease of dissolution [3]: difficult to dissolve
9 | C=CC1=C(C)c2cc3[nH]c(cc4nc(cc5[nH]c(cc1n2)C1(C)C5=CC=C(C(=O)OC)C1C(=O)OC)C(C)=C4CCC(=O)OC)c(CCC(=O)OC)c3C (stereo not drawn) [Compound 41, 3-Vinyl-BPD] | – | activity similar to BPD | – | –
10 | 3-(1-Hexyloxyethyl)benzoporphyrin Derivative [Compound 35] | – | active; also recorded: good antitumor activity | significantly more active than the industrially prepared benzoporphyrin derivative; also recorded: better photosensitizing efficacy than benzoporphyrin derivative monocarboxylic acid; also recorded: better anti-tumor activity than BPD-MA | Tumor response (nonpalpable tumor), 1-2 d (SMT-F tumor [1]): 6/6; Tumor response (nonpalpable tumor), 7 d (SMT-F tumor [1]): 6/6; Tumor response (nonpalpable tumor), 30 d (SMT-F tumor [1]): 2/6
11 | CCCCCCOC(C)C1=C(C)c2cc3[nH]c(cc4nc(cc5[nH]c(cc1n2)c(C)c5CCC(=O)OC)C(CCC(=O)OC)=C4C)C1(C)C3=CC=C(C(=O)OC)C1C(=O)OC (mixture of isomers) [Compound 27, 8-(1-Hexyloxyethyl)benzoporphyrin Derivative] | – | active; also recorded: good antitumor activity | significantly more active than the industrially prepared benzoporphyrin derivative; also recorded: better photosensitizing efficacy than benzoporphyrin derivative monocarboxylic acid; also recorded: better anti-tumor activity than BPD-MA | Tumor response (nonpalpable tumor), 1-2 d (SMT-F tumor [1]): 6/6; Tumor response (nonpalpable tumor), 7 d (SMT-F tumor [1]): 4/6; Tumor response (nonpalpable tumor), 30 d (SMT-F tumor [1]): 1/6; absorption maximum wavelength ([2]; maximum red absorption peak, Table 3): 676 nm
12 | C=CC1=C(C)c2cc3[nH]c(cc4nc(cc5[nH]c(cc1n2)c(C)c5CCC(=O)OC)C(CCC(=O)OC)=C4C)C1(C)C3=CC=C(C(=O)OC)C1C(=O)OC (stereo not drawn) [Compound 20, 8-vinylbenzoporphyrin Derivative] | – | activity similar to BPD | – | –
13 | CCC1=C(C)c2cc3[nH]c(cc4nc(cc5[nH]c(cc1n2)C1(C)C5=CC=C(C(=O)OC)C1C(=O)OC)C(C)=C4CCC(=O)OC)c(CCC(=O)OC)c3C (stereo not drawn) [Compound 33, 2-Ethylbenzoporphyrin Derivative] | did not show any significant tumorcidal activity | – | – | –
14 | COC(=O)CCC1=C(C)c2cc3[nH]c(cc4nc(cc5[nH]c(cc1n2)c(CCC(=O)OC)c5C)C(C=O)=C4C)C1=CC=C(C(=O)OC)C(C(=O)OC)C13C (stereo not drawn) [Compound 26, 8-Formylbenzoporphyrin Derivative] | did not show any significant tumorcidal activity | – | – | strong absorption in the red [2]: 696 nm
15 | COC(=O)CCC1=C(C)c2cc3[nH]c(cc4nc(cc5[nH]c(cc1n2)c(CCC(=O)OC)c5C)C(C)=C4C(C)=O)C1(C)C3=CC=C(C(=O)OC)C1C(=O)OC (stereo not drawn) [Compound 42, 3 -Acetylbenzoporphyrin Derivative] | – | inactive | failed to improve their photosensitizing efficacy | red shift in the absorption spectra [2]: significant red shift in the absorption spectra; ease of dissolution [3]: difficult to dissolve
16 | C=CC1=C(C)c2cc3[nH]c(cc4nc(cc5[nH]c(cc1n2)c(C)c5CCC(=O)OC)C(CCC(=O)OC)=C4C)C1(C)C3=CC=C(C(=O)OC)C1C(=O)OC (stereo not drawn) [Compound 36, 8-Vinylbenzoporphyrin Derivative] | – | activity similar to BPD | – | –
